Measured values from ChEMBL document CHEMBL4043248, “Structure-activity relationship study of β-oxidation resistant indole-based 5-oxo-6,8,11,14-eicosatetraenoic acid (5-oxo-ETE) receptor antagonists” (Bioorg Med Chem Lett, 2017).

What follows are molecules tested against Oxoeicosanoid receptor 1 (Homo sapiens, UniProt Q8TDS5) (assay: Antagonist activity at OXE receptor in human neutrophils assessed as inhibition of 5-oxo-ETE-induced calcium mobilization incubated for 2 mins followed by 5-oxo-ETE addition measured after 1 min by fluorescence assay).
Chain of Oxoeicosanoid receptor 1 (Q8TDS5 whole entry): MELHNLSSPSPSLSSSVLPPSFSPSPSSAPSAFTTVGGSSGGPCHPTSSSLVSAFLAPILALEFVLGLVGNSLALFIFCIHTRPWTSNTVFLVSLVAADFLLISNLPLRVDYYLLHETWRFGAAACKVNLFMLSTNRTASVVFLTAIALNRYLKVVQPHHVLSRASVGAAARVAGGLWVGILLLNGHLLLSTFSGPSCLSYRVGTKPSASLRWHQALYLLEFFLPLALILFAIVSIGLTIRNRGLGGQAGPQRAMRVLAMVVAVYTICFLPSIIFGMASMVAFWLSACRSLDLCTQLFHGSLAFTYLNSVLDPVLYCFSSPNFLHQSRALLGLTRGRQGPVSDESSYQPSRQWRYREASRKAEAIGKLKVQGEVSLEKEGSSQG
Assay type: functional

`CCCCCCc1c(C(=O)c2cccc(C(=O)O)c2)c2cc(Cl)ccc2n1C` and `CCCCCCc1c(C(=O)c2ccc(C(=O)O)cc2)c2cc(Cl)ccc2n1C` are within 1.5-fold of each other in IC50: 1120 nM for the first, 1360 nM for the second.

Compared with `CCCCCCc1c(C(=O)CCC(C)(C)C(=O)O)c2cc(Cl)ccc2n1C`, `CCCCCCc1c(C(=O)C(C)(C)CCC(=O)O)c2cc(Cl)ccc2n1C` is 2-fold higher in IC50: 4060 nM for the first, 8150 nM for the second.

Going from `CCCCCCc1c(C(=O)COCC(=O)O)c2cc(Cl)ccc2n1C` to `CCCCCCc1c(C(=O)C[C@@H](C)CC(=O)O)c2cc(Cl)ccc2n1C`, the IC50 falls from 5500 nM to 2700 nM (2-fold).

`CCCCCCc1c(C(=O)CC2(CC(=O)O)CC2)c2cc(Cl)ccc2n1C` and `CCCCCCc1c(C(=O)CC2(CC(=O)O)CCC2)c2cc(Cl)ccc2n1C` are within 1.5-fold of each other in IC50: 580 nM for the first, 720 nM for the second.

First: CCCCCCCCCCCc1c(C(=O)CC(C)CC(=O)O)c2cc(Cl)ccc2n1C (stereo unspecified)
Second: CCCCCCc1c(C(=O)CC(C)CC(=O)O)c2cc(Cl)ccc2n1C (stereo unspecified)
The IC50 of the first is higher: 23 nM for the first, 16 to 20 nM for the second.

`CCCCCCc1c(C(=O)CC(C)(C)CC(=O)O)c2cc(Cl)ccc2n1C` showed an IC50 of 1330 nM.
